# According to US20250361230A1, “LATS Inhibitors and Uses Thereof” (The USA, as Represented by the Secretary, Dept. of Heath …, priority 2022, published 2025):
# pIC50: −log10 of the molar value.
# Biological target: T1, AKT Kinase-NanoLuc fusion in HEK-293 cells (Homo sapiens, UniProt P31749)
# T1 construct: host or cells: HEK-293
# Test: NanoBRET target engagement assay in transfected HEK-293 cells, AKT
# Format: cell-based
# Settings: Table 28, NanoBRET, HEK-293 cells; read-out: AKT1 (Cellular) IC50
# Source text: The NanoBRET™ assay measures kinase engagement in real time in the context of the intact cell. The assay uses a Kinase-NanoLuc® fusion vector expressing a kinase protein to which a luciferase tag has been added, a cell-permeant fluorescent NanoBRET™ tracer, a NanoLuc® substrate, and an extracellular NanoLuc® inhibitor. Upon expression of the luciferase-tagged kinase, cells will produce a strong BRET signal only in the presence of the NanoBRET™ tracer. The extracellular NanoLuc® inhibitor ensures that the BRET signal observed emanates only from live cells. Because the BRET signal has tight distance constraints, addition of the test compound will decrease the BRET signal if the compound competes with the NanoBRET™ tracer for binding to the kinase domain. Under the appropriate tracer conditions established by the manufacturer, quantitative intracellular affinity and relative potency can then be determined using Mass Action model equations.
# HEK-293 cells were purchased from ATCC. FuGENEHD Transfection Reagent, Kinase-NanoLuc® fusion plasmids, Transfection Carrier DNA, NanoBRET™ Tracers and dilution buffer, NanoBRET™ Nano-Glo Substrate, Extracellular NanoLuc® Inhibitor were obtained from Promega.
# Assays were conducted following Promega assay protocol with some modifications as described further below. HEK-293 Cells were transiently transfected with Kinase-NanoLuc® Fusion Vector DNA by FuGENE HD Transfection Reagent. Test compounds were delivered into 384 well assay plate by Echo 550 (Labcyte Inc, Sunnyvale, CA). Transfected cells were harvested and mixed with NanoBRET™ Tracer Reagent and dispensed into 384 well plates and incubated at 37° C. in 5% CO2 cell culture incubator for 1 hour. The NanoBRET™ Nano-Glo Substrate plus Extracellular NanoLuc® Inhibitor Solution were added into the wells of the assay plate and incubated for 2-3 minutes at room temperature. The donor emission wavelength (460 nm) and acceptor emission wavelength (600 nm) were measured in the EnVision plate reader. The BRET Ratios were calculated. BRET Ratio=[(Acceptor sample÷Donor sample)−(Acceptor no-tracer control÷Donor no-tracer control)]. The IC50 values of compounds were calculated with Prism GraphPad program.
# • 1. Transient Transfection of HEK-293 Cells NanoLuc® Fusion Vector DNA • 1). Cultivate HEK-293 cells (70-80% confluence) appropriately prior to assay. Trypsinize and collect HEK-293 cells. • 2). Prepare lipid: DNA complexes as follows: • a. Prepare a […] solution of DNA in Opti-MEM™ without serum that consists of the following ratios of carrier DNA and DNA encoding NanoLuc® fusion. 9.0 µg/mL of Transfection Carrier DNA, […] of NanoLuc® fusion vector DNA and 1 mL of Opti-MEM™ without phenol red. Mix thoroughly. • b. Add 30 μl of FuGENE HD Transfection Reagent into each milliliter of DNA mixture to form lipid: DNA complex. • c. Mix by inversion 10 times. • d. Incubate at ambient temperature for 20 minutes to allow complexes to form. • 3). In a sterile, conical tube, mix 1 part of lipid: DNA complex with 20 parts of HEK-293 cells in suspension. Mix gently by inversion 5 times. • 4). Dispense cells+lipid: DNA complex into a sterile tissue culture dish and incubate for 22-24 hours. • 2. Addition of Test Compounds (dry plate shooting): Each test compound is delivered from the compound source plate to the wells of 384-well white NBS plate by Echo 550. • 3. Preparation of Cells with NanoBRET™ Tracer Reagent • 1). Remove medium from dish with transfected HEK-293 cells via aspiration, trypsinize and allow cells to dissociate from the dish. • 2). Neutralize trypsin using medium containing serum and centrifuge at 200× g for 5 minutes to pellet the cells. Adjust the cell density to 2×10^5 cells/mL in Opti-MEM™ without phenol red. • 3). Prepare Complete 20× NanoBRET™ Tracer Reagent with Tracer Dilution Buffer. • 4). Dispense one part of Complete 20× NanoBRET™ Tracer Reagent to 20 parts of cells in the tube. Mix gently by inversion 10 times. • 5). […]
# T1 sequence (P31749 whole entry, the tested form may be a part): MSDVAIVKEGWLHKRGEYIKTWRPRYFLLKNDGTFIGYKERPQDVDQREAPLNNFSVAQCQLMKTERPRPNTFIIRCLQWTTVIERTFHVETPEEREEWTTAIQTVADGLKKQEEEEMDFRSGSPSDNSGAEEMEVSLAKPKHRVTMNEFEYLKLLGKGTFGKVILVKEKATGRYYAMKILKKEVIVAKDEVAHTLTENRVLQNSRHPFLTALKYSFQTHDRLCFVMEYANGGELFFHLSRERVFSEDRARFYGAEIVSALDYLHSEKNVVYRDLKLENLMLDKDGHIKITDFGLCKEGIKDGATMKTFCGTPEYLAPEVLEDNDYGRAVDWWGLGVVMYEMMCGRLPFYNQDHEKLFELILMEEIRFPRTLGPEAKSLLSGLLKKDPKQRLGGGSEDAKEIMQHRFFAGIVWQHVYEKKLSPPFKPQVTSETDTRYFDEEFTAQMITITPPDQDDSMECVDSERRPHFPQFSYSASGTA
row,SMILES,pIC50
1,"C[C@@H]1CN(C2COC2)C[C@H](C)[C@@]1(O)c1c(F)cc(-c2ccnc3[nH]cc(F)c23)cc1F [Compound 45, (3S,4s,5R)-4-(2,6-difluoro-4-(3-fluoro-1H-pyrrolo[2,3-b]pyridin-4-yl)phenyl)-3, S-dimethyl-1-(oxetan-3-yl)piperidin-4-ol]",< 4.52
2,"C[C@@H]1CNC[C@H](C)[C@@]1(O)c1ccc(-c2ccnc3[nH]cc(F)c23)cc1OC(F)(F)F [Compound 14, (3S,4s,5R)-4-(4-(3-fluoro-1H-pyrrolo[2,3-b]pyridin-4-yl)-2-(trifluoromethoxy)phenyl)-3,5-dimethylpiperidin-4-ol]",5.31
3,"C[C@@H]1CN(CC(N)=O)C[C@H](C)[C@@]1(O)c1c(F)cc(-c2ccnc3[nH]cc(F)c23)cc1F [Compound 88, 2-((3R,4s,5S)-4-(2,6-difluoro-4-(3-fluoro-1H-pyrrolo[2,3-b]pyridin-4-yl)phenyl)-4-hydroxy-3,5-dimethylpiperidin-1-yl)acetamide]",< 4.52
4,"Cc1cc(-c2ccnc3[nH]cc(F)c23)ccc1[C@@]1(O)[C@H](C)CNC[C@@H]1C [Compound 9, (3S,4s,5R)-4-(4-(3-fluoro-1H-pyrrolo[2,3-b]pyridin-4-yl)-2-methylphenyl)-3,5-dimethylpiperidin-4-ol]",4.82
5,"c1cc(-c2ccc(C3CCCCN3)cc2)c2cc[nH]c2n1 (centres unmarked) [Compound 271, 4-(4-(piperidin-2-yl)phenyl)-1H-pyrrolo[2,3-b]pyridine]",4.84
6,"Cc1cc(-c2ccnc3[nH]cc(F)c23)cc(F)c1[C@@]1(O)[C@H](C)CN(C2CCS(=O)(=O)CC2)C[C@@H]1C [Compound 57, 4-((3R,4s,5S)-4-(2-fluoro-4-(3-fluoro-1H-pyrrolo[2,3-b]pyridin-4-yl)-6-methylphenyl)-4-hydroxy-3,5-dimethylpiperidin-1-yl)tetrahydro-2H-thiopyran 1,1-dioxide]",4.50
7,"Cc1cc(-c2ccnc3[nH]cc(F)c23)ccc1[C@@]1(O)[C@H](C)CN(C2CCC2)C[C@@H]1C [Compound 54, (3R,4s,5S)-1-cyclobutyl-4-(4-(3-fluoro-1H-pyrrolo[2,3-b]pyridin-4-yl)-2-methylphenyl)-3,5-dimethylpiperidin-4-ol]",5.53
8,"C[C@@H]1CN(C)C[C@H](C)[C@@]1(O)c1ccc(-c2ccnc3[nH]cc(F)c23)nc1 [Compound 41, (3R,4s,5S)-4-(6-(3-fluoro-1H-pyrrolo[2,3-b]pyridin-4-yl)pyridin-3-yl)-1,3,5-trimethylpiperidin-4-ol]",5.06
9,"Fc1c[nH]c2nccc(-c3ccc(C4CCNCC4)cc3)c12 [Compound 169, 3-fluoro-4-(4-(piperidin-4-yl)phenyl)-1H-pyrrolo[2,3-b]pyridine]",4.88
10,"Cc1cc(-c2ccnc3[nH]ccc23)ccc1C1CCNCC1 [Compound 177, 4-(3-methyl-4-(piperidin-4-yl)phenyl)-1H-pyrrolo[2,3-b]pyridine]",4.49
11,"COC(=O)c1c[nH]c2nccc(-c3ccc(CN)cc3)c12 [Compound 223, methyl 4-(4-(aminomethyl)phenyl)-1H-pyrrolo[2,3-b]pyridine-3-carboxylate]",< 4.30
12,"Cc1cc(-c2ccnc3[nH]cc(F)c23)cc(F)c1[C@@]1(O)[C@H](C)CN(C(=O)[C@H](N)CO)C[C@@H]1C [Compound 312, (R)-2-amino-1-((3S,4R,5R)-4-(2-fluoro-4-(3-fluoro-1H-pyrrolo[2,3-b]pyridin-4-yl)-6-methylphenyl)-4-hydroxy-3,5-dimethylpiperidin-1-yl)-3-hydroxypropan-1-one]",4.89
13,"Clc1c[nH]c2nccc(-c3ccc(C4CCNCC4)cc3)c12 [Compound 173, 3-chloro-4-(4-(piperidin-4-yl)phenyl)-1H-pyrrolo[2,3-b]pyridine]",4.13
14,"CC(C)(N)c1ccc(-c2ccnc3[nH]cc(F)c23)cc1 [Compound 238, 2-(4-(3-fluoro-1H-pyrrolo[2,3-b]pyridin-4-yl)phenyl)propan-2-amine]",5.02
15,"Cc1cccc(-c2c[nH]c3nccc(-c4ccc(CN)cc4)c23)c1 [Compound 230, (4-(3-(m-tolyl)-1H-pyrrolo[2,3-b]pyridin-4-yl)phenyl) methanamine]",6.12
16,"COC(=O)c1c[nH]c2nccc(-c3cc(C)c([C@@]4(O)[C@H](C)CN(C5CCS(=O)(=O)CC5)C[C@@H]4C)c(F)c3)c12 [Compound 309, methyl 4-(4-((3S,4s,5R)-1-(1,1-dioxidotetrahydro-2H-thiopyran-4-yl)-4-hydroxy-3,5-dimethylpiperidin-4-yl)-3-fluoro-5-methylphenyl)-1H-pyrrolo[2,3-b]pyridine-3-carboxylate]",4.40
17,"Cc1cc(-c2ccnc3[nH]cc(F)c23)ccc1[C@@]1(O)[C@H](C)CN(C(C)C)C[C@@H]1C [Compound 29, (3S,4s, 5R)-4-(4-(3-fluoro-1H-pyrrolo[2,3-b]pyridin-4-yl)-2-methylphenyl)-1-isopropyl-3,5-dimethylpiperidin-4-ol]",4.77
18,C[C@@H]1CNC[C@H](C)[C@@]1(O)c1c(F)cc(-c2ccnc3[nH]cc(F)c23)cc1F [Compound 13],4.79
19,O=C([C@H]1CCCN1)N1CCC(O)(c2ccc(-c3ccnc4[nH]cc(F)c34)cc2)CC1 [Compound 142],4.40
20,"c1cc(-c2ccc3c(c2)CCNC3)c2cc[nH]c2n1 [Compound 267, 6-(1H-pyrrolo[2,3-b]pyridin-4-yl)-1,2,3,4-tetrahydroiso-quinoline]",4.76
21,"C[C@@H]1CNC[C@H](C)[C@@]1(O)c1ccc(-c2ccnc3[nH]cc(F)c23)cc1 [Compound 2, (3R,4s,5S)-4-(4-(3-fluoro-1H-pyrrolo[2,3-b]pyridin-4-yl)phenyl)-3,5-dimethylpiperidin-4-ol]",< 4.30

# Same assay, conditions: Table 32, NanoBRET, HEK-293 cells; read-out: AKT (Cellular) IC50
row,SMILES,pIC50
1,"NCC(O)(c1ccc(Cl)cc1)c1ccc(-c2ccnc3[nH]cc(-c4ccccc4)c23)cc1 (centres unmarked) [Compound 1006, 2-amino-1-(4-chlorophenyl)-1-(4-(3-phenyl-1H-pyrrolo[2,3-b]pyridin-4-yl)phenyl)ethan-1-ol]",6.87

# Same assay, conditions: cellular; read-out: AKT (Cellular) IC50
row,SMILES,pIC50
1,"Cc1cc(-c2ccnc3[nH]cc(C#N)c23)cc(F)c1[C@@]1(O)[C@H](C)CN(C(=O)C(N)C(F)(F)F)C[C@@H]1C (stereo partly drawn) [Compound 2017, 4-(4-((3S,4s,5R)-1-(2-amino-3,3,3-trifluoropropanoyl)-4-hydroxy-3,5-dimethylpiperidin-4-yl)-3-fluoro-5-methylphenyl)-1H-pyrrolo[2,3-b]pyridine-3-carbonitrile]",< 4.30
2,"Cc1cc(-c2ccnc3[nH]cc(C#N)c23)cc(F)c1[C@@]1(O)[C@H](C)CN(C(=O)[C@H](C)N)C[C@@H]1C [Compound 2011, 4-(4-((3S,4R,5R)-1-(L-alanyl)-4-hydroxy-3,5-dimethylpiperidin-4-yl)-3-fluoro-5-methylphenyl)-1H-pyrrolo[2,3-b]pyridine-3-carbonitrile]",< 4.30
3,"Cc1cc(-c2ccnc3[nH]cc(C#N)c23)cc(F)c1[C@@]1(O)[C@H](C)CNC[C@@H]1C [Compound 2024, 4-(3-fluoro-4-((3S,4s,5R)-4-hydroxy-3,5-dimethylpiperidin-4-yl)-5-methylphenyl)-1H-pyrrolo[2,3-b]pyridine-3-carbonitrile]",< 4.30
4,"CNCC(=O)N1C[C@@H](C)[C@](O)(c2c(C)cc(-c3ccnc4[nH]cc(C#N)c34)cc2F)[C@@H](C)C1 [Compound 2012, 4-(3-fluoro-4-((3S,4s,5R)-4-hydroxy-3,5-dimethyl-1-(methylglycyl)piperidin-4-yl)-5-methylphenyl)-1H-pyrrolo[2,3-b]pyridine-3-carbonitrile]",< 4.30
